One test concerns the target T1, SIRT1 (Homo sapiens, UniProt Q96EB6).
T1 sequence (Q96EB6 2-747): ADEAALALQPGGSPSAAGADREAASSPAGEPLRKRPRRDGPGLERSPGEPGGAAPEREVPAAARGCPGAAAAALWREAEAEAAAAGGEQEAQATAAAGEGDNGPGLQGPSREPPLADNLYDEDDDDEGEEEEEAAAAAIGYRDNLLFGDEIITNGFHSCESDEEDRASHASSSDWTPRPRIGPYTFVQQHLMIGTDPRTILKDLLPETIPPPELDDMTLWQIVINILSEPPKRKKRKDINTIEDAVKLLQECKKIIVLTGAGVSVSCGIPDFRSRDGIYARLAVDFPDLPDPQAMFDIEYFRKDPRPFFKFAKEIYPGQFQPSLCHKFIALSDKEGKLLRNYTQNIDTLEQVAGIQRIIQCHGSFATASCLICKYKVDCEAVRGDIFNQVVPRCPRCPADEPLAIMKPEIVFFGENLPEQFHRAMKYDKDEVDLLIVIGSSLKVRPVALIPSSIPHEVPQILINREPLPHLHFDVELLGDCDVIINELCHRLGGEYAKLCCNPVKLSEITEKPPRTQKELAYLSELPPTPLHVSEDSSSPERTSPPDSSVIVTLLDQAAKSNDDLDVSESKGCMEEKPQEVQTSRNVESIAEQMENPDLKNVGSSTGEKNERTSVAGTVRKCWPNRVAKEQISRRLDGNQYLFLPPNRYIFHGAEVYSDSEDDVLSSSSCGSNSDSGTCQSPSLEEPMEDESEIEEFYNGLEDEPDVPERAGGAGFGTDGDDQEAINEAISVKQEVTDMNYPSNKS
Description: biochemical. More on the design: Sirtuin-TK assay, percent inhibition of human SIRT1 or SIRT2 at 5 and 50 uM. As for the experimental part: (§1) Sirtuin-TK assay was performed to estimate the Sirtuins inhibitory potential of 5a–h (Tables 2 and 3). The results of this test strongly complemented the findings of cancer cell-based assessments. […] Of the 8 compounds evaluated, 3 analogs (5b, 5e and 5h) were more likely to inhibit Sirt2 (>70% inhibition) than Sirt1 (<50% inhibition) at 50 μM. The other compounds were poor inhibitors of both enzymes. […] 4.2.2. Sirtuin inhibitory assay

The target in test [1] is T2, SIRT2 (Homo sapiens, UniProt Q8IXJ6).
T2 sequence (Q8IXJ6 2-389): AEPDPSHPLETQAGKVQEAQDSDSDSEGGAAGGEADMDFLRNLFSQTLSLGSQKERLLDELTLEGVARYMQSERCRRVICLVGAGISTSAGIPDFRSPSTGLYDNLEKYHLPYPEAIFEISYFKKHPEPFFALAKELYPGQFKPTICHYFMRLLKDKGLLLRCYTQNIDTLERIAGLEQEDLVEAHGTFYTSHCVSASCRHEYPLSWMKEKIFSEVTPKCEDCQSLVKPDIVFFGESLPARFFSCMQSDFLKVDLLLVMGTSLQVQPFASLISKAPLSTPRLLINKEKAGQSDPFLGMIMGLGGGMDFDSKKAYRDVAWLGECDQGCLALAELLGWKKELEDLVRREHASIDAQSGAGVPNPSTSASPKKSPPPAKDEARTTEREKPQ
The test can be described thus: biochemical. More on the design: Sirtuin-TK assay, percent inhibition of human SIRT1 or SIRT2 at 5 and 50 uM. As for the experimental part: as §1

The target in test [2] is T2, SIRT2. Description: sirtuin deacetylase inhibition assay, % inhibition at […] ([…] at […]). Format: biochemical.
In a further test the test system is SR. Description: cells. Details: species or system NCI-60 human tumour cell lines; NCI-60 one-dose screen at 10 uM, percent growth inhibition versus untreated control cells. The conditions noted are these: Homo sapiens, SR; growth inhibition, one dose; read-out: Growth% inhibition / 5f. As for the experimental part: (§2) The antiproliferative activity of the target compounds 5a–h was screened against a panel of 60 cancer cell lines according to NCI-guidelines at concentration of 10 μM. The results for each compound (Table 1) were recorded as the percent of growth inhibition of treated cells compared to untreated control cells. […] In addition, 5b recorded significant activity against leukemia cancer cell lines K-562 and MOLT-4, Non-small cell lung cancer cell lines NCI-H322M and NCI-H460, Colon cancer cell lines COLO 205, HCT-15 and HCT-116, CNS cancer cell lines SF-295 and SF-539, Melanoma cancer cell lines LOX IMVI and UACC-62, Ovarian cancer cell lines NCI/ADR-RES, OVCAR-3, and OVCAR-4, Renal cancer cell lines CAKI-1, ACHN, and UO-31, and Breast cancer MCF7 cell line with growth inhibition percentage between 80 to 95. […] The methodology of the NCI anticancer screening has been described in detail elsewhere (https://dtp.cancer.gov/).[52]

A further test relates to UACC-62. Description: cells. More on the design: species or system NCI-60 human tumour cell lines; NCI-60 one-dose screen at 10 uM, percent growth inhibition versus untreated control cells. As to conditions: Homo sapiens, UACC-62, growth inhibition, one dose. How it is done: as §2
The subject of another test is UO-31. Description: cells. More on the design: species or system NCI-60 human tumour cell lines; NCI-60 one-dose screen at 10 uM, percent growth inhibition versus untreated control cells. The conditions noted are these: Homo sapiens, UO-31, growth inhibition, one dose. As for the experimental part:
as §2

The subject of another test is IGROV1. The test can be described thus: cells. More on the design: species or system NCI-60 human tumour cell lines; NCI-60 one-dose screen at 10 uM, percent growth inhibition versus untreated control cells. As to conditions: Homo sapiens, IGROV-1, growth inhibition, one dose. As for the experimental part: as §2
Another test concerns SNB-75. Description: cells. Details: species or system NCI-60 human tumour cell lines; NCI-60 one-dose screen at 10 uM, percent growth inhibition versus untreated control cells. The conditions noted are these: Homo sapiens, SNB-75, growth inhibition, one dose. As for the experimental part: as §2
The next test has as its system CAKI-1. Description: cells. More on the design: species or system NCI-60 human tumour cell lines; NCI-60 one-dose screen at 10 uM, percent growth inhibition versus untreated control cells. As to conditions: Homo sapiens, CAKI-1; growth inhibition, one dose; read-out: Growth% inhibition / 5f. How it is done: as §2
A further test concerns HOP-92. The test can be described thus: cells. More on the design: species or system NCI-60 human tumour cell lines; NCI-60 one-dose screen at 10 uM, percent growth inhibition versus untreated control cells. The conditions noted are these: Homo sapiens, HOP-92; growth inhibition, one dose; read-out: Growth% inhibition / 5f. How it is done:
as §2

For another test, the system named is NCI-H226. The test can be described thus: cells. Details: species or system NCI-60 human tumour cell lines; NCI-60 one-dose screen at 10 uM, percent growth inhibition versus untreated control cells. As to conditions: Homo sapiens, NCI-H226, growth inhibition, one dose. How it is done: as §2
The test system of a further test is SF-539. Description: cells. More on the design: species or system NCI-60 human tumour cell lines; NCI-60 one-dose screen at 10 uM, percent growth inhibition versus untreated control cells. As to conditions: Homo sapiens, SF-539; growth inhibition, one dose; read-out: Growth% inhibition / 5c. As for the experimental part:
as §2

In the next test the test system is MCF7. The test can be described thus: cells. Details: species or system NCI-60 human tumour cell lines; NCI-60 one-dose screen at 10 uM, percent growth inhibition versus untreated control cells. The conditions noted are these: Homo sapiens, MCF7; growth inhibition, one dose; read-out: Growth% inhibition / 5c. As for the experimental part:
as §2

Another test has as its system NCI-H522. The test can be described thus: cells. Details: species or system NCI-60 human tumour cell lines; NCI-60 one-dose screen at 10 uM, percent growth inhibition versus untreated control cells. The conditions noted are these: Homo sapiens, NCI-H522; growth inhibition, one dose; read-out: Growth% inhibition / 5c. As for the experimental part:
as §2

Another test deals with K-562. The test can be described thus: cells. Details: species or system NCI-60 human tumour cell lines; NCI-60 one-dose screen at 10 uM, percent growth inhibition versus untreated control cells. As to conditions: Homo sapiens, K562; growth inhibition, one dose; read-out: Growth% inhibition / 5c. As for the experimental part: as §2
Another test relates to NCI-H322M. Description: cells. More on the design: species or system NCI-60 human tumour cell lines; NCI-60 one-dose screen at 10 uM, percent growth inhibition versus untreated control cells. As to conditions: Homo sapiens, NCI-H322M; growth inhibition, one dose; read-out: Growth% inhibition / 5c. How it is done:
as §2

The next test has as its system BT-549. Description: cells. More on the design: species or system NCI-60 human tumour cell lines; NCI-60 one-dose screen at 10 uM, percent growth inhibition versus untreated control cells. As to conditions: Homo sapiens, BT-549; growth inhibition, one dose; read-out: Growth% inhibition / 5c. As for the experimental part: as §2
In another test the test system is RPMI-8226. The test can be described thus: cells. Details: species or system NCI-60 human tumour cell lines; NCI-60 one-dose screen at 10 uM, percent growth inhibition versus untreated control cells. As to conditions: Homo sapiens, RPMI-8226; growth inhibition, one dose; read-out: Growth% inhibition / 5c. How it is done: as §2
Another test has as its system T-47D. The test can be described thus: cells. Details: species or system NCI-60 human tumour cell lines; NCI-60 one-dose screen at 10 uM, percent growth inhibition versus untreated control cells. The conditions noted are these: Homo sapiens, T47D; growth inhibition, one dose; read-out: Growth% inhibition / 5c. As for the experimental part:
as §2

The subject of the next test is CCRF-CEM. Description: cells. More on the design: species or system NCI-60 human tumour cell lines; NCI-60 one-dose screen at 10 uM, percent growth inhibition versus untreated control cells. As to conditions: Homo sapiens, CCRF-CEM; growth inhibition, one dose; read-out: Growth% inhibition / 5c. As for the experimental part:
as §2

Test [3] deals with T2, SIRT2. Description: sirtuin deacetylase inhibition assay, % inhibition at […] ([…] at […]). Format: biochemical. The source holds these as a separate data set.
For the next test, the system named is LOX IMVI. Description: cells. More on the design: species or system NCI-60 human tumour cell lines; NCI-60 one-dose screen at 10 uM, percent growth inhibition versus untreated control cells. The conditions noted are these: Homo sapiens, LOX IMVI; growth inhibition, one dose; read-out: Growth% inhibition / 5g. How it is done:
as §2

For test [4], the target named is T2, SIRT2. Description: sirtuin deacetylase inhibition assay, % inhibition at […] ([…] at […]). Format: biochemical. The source holds these as a separate data set.
Setting [5] is: read-out: Growth% inhibition / 5f.
The mark [6] stands for this setting: read-out: Growth% inhibition / 5c.
The mark [7] stands for this setting: read-out: Growth% inhibition / 5g.

The structures appear in SMILES notation. Where two headings read alike, the source gives them in different places.

`O=C(/C=C/C=C/c1ccc2c(c1)OCO2)NN=C(c1ccc(F)cc1)c1ccc(F)cc1` [5f, (2E,4E)-5-(Benzo[d][1,3]dioxol-5-yl)-N′-(bis(4-fluorophenyl)methylene)penta-2,4-dienehydrazide]: the inhibition at 5 µM against SIRT1 was found to be 14 ± 4%; against SIRT2 [1], 20 ± 4%. For the same molecule, the inhibition at 50 µM against SIRT1 amounted to 39 ± 3%; against SIRT2 [2], 69 ± 3%. Also, the inhibition at 10 µM was 36.3% in the test on SR; 12.2% in the test on UACC-62 (setting [5]); 18.3% in the test with UO-31 (setting [5]); 12.1% in the test on IGROV1 (setting [5]); 16.6% in the test with SNB-75 (setting [5]); 12.8% with CAKI-1. For the same molecule, the inhibition at 10 µM in the test on HOP-92 came out at 13.8%.

For `COc1cc(C=NNC(=O)/C=C/C=C/c2ccc3c(c2)OCO3)ccc1O` [5c, (2E,4E)-5-(Benzo[d][1,3]dioxol-5-yl)-N′-((E,Z)-4-hydroxy-3-methoxybenzylidene)penta-2,4-dienehydrazide], the inhibition at 5 µM at SIRT1 worked out at 12 ± 1%; on SIRT2 [1], 17 ± 3%. Further, the inhibition at 50 µM was 38 ± 3% on SIRT1 and 58 ± 3% against SIRT2 [3]. Moreover, the inhibition at 10 µM in the test with NCI-H226 (setting [6]) is 18.3%; with SF-539, 15.3%; in the test on UACC-62 (setting [6]), 11.3%; in the test on UO-31 (setting [6]) it was 14%; with MCF7, 20.1%; in the test with NCI-H522, 22%. In addition, the inhibition at 10 µM was 10.5% in the test with K-562; 14.7% with NCI-H322M; 13.6% with BT-549; 15.3% with RPMI-8226; 19.8% in the test with T-47D; 12.1% in the test with CCRF-CEM.

Consider `CC(C)(C)c1cc(/C=N/NC(=O)/C=C/C=C/c2ccc3c(c2)OCO3)c(O)c(C(C)(C)C)c1` [5g, (2E,4E)-5-(Benzo[d][1,3]dioxol-5-yl)-N′-((E)-3,5-di-tert-butyl-2-hydroxy-benzylidene)penta-2,4-dienehydrazide], for which the inhibition at 5 µM against SIRT1 is 9 ± 2%; against SIRT2 [1], 19 ± 2%. Moreover, the inhibition at 50 µM amounted to 35 ± 1% against SIRT1 and 55 ± 1% against SIRT2 [4]. Also, the inhibition at 10 µM stood at 10.1% with NCI-H226 (setting [7]); 27.9% in the test on UO-31 (setting [7]); 14.1% with IGROV1 (setting [7]); 33% with SNB-75 (setting [7]); 12.1% in the test on LOX IMVI.

The record behind these values is publication PMC9037111, “Structure-based design, synthesis, and biological evaluation of novel piperine–resveratrol hybrids as antiproliferative agents targeting SIRT-2” (RSC Advances, 2021).
